Test results taken from ChEMBL document CHEMBL3045927, “Synthesis of 4-methyl-1,2,3-thiadiazole derivatives via Ugi reaction and their biological activities” (2010).

Assays:
Assay type in all cases: functional
[1] = tested on: Botryosphaeria berengeriana; test: Fungicidal activity against Botryosphaeria berengeriana at 50 ug/ml by growth inhibition method; design: scale not given: the % may be the effect or the level left
[2] = tested on: Tobacco mosaic virus; test: In vivo antiviral activity against Tobacco mosaic virus (TMV) infected tobacco leaves assessed as protective effect at 500 ug/ml treated 12 hr before viral inoculation measured at 2-3 days after viral challenge
[3] = tested on: Nicotiana tabacum; test: Induction of systemic acquired resistance activity in TMV infected-Nicotiana tabacum (tobacco) leaves at 50 ug/ml
[4] = tested on: Cercospora beticola; test: Fungicidal activity against Cercospora beticola at 50 ug/ml by growth inhibition method; design: scale not given: the % may be the effect or the level left
[5] = tested on: Mycosphaerella arachidis; test: Fungicidal activity against Mycosphaerella arachidis at 50 ug/ml by growth inhibition method; design: scale not given: the % may be the effect or the level left
[6] = tested on: Rhizoctonia solani; test: Fungicidal activity against Rhizoctonia solani at 50 ug/ml by growth inhibition method; design: scale not given: the % may be the effect or the level left
[7] = tested on: Nicotiana tabacum; test: Induction of systemic acquired resistance activity in TMV infected-Nicotiana tabacum (tobacco) leaves at 100 ug/ml
[8] = tested on: Tobacco mosaic virus; test: In vivo antiviral activity against Tobacco mosaic virus (TMV) infected tobacco leaves assessed as inactivation effect at 500 ug/ml co-treated with virus for 30 min before inoculation onto leaves measured at 2-3 days after viral challenge
[9] = tested on: Tobacco mosaic virus; test: In vitro antiviral activity against Tobacco mosaic virus (TMV) infected tobacco leaves at 500 ug/ml
[10] = tested on: Phytophthora infestans; test: Fungicidal activity against Phytophthora infestans at 50 ug/ml by growth inhibition method; design: scale not given: the % may be the effect or the level left
[11] = tested on: Tobacco mosaic virus; test: In vivo antiviral activity against Tobacco mosaic virus (TMV) infected tobacco leaves assessed as inactivation effect at 100 ug/ml co-treated with virus for 30 min before inoculation onto leaves measured at 2-3 days after viral challenge
[12] = tested on: Thanatephorus cucumeris; test: Fungicidal activity against Thanatephorus cucumeris at 50 ug/ml by growth inhibition method; design: scale not given: the % may be the effect or the level left
[13] = tested on: Colletotrichum lagenaria; test: Fungicidal activity against Colletotrichum lagenaria at 50 ug/ml by growth inhibition method; design: scale not given: the % may be the effect or the level left
[14] = tested on: Alternaria solani; test: Fungicidal activity against Alternaria solani at 50 ug/ml by growth inhibition method; design: scale not given: the % may be the effect or the level left
[15] = tested on: Tobacco mosaic virus; test: In vivo antiviral activity against Tobacco mosaic virus (TMV) infected tobacco leaves assessed as curative effect at 100 ug/ml treated after viral inoculation measured at 2-3 days after viral challenge
[16] = tested on: Tobacco mosaic virus; test: In vivo antiviral activity against Tobacco mosaic virus (TMV) infected tobacco leaves assessed as protective effect at 100 ug/ml treated 12 hr before viral inoculation measured at 2-3 days after viral challenge
[17] = tested on: Fusarium graminearum; test: Fungicidal activity against Fusarium graminearum at 50 ug/ml by growth inhibition method; design: scale not given: the % may be the effect or the level left
[18] = tested on: Tobacco mosaic virus; test: In vivo antiviral activity against Tobacco mosaic virus (TMV) infected tobacco leaves assessed as curative effect at 500 ug/ml treated after viral inoculation measured at 2-3 days after viral challenge
[19] = tested on: Tobacco mosaic virus; test: In vitro antiviral activity against Tobacco mosaic virus (TMV) infected tobacco leaves at 100 ug/ml
[20] = tested on: Pyricularia grisea; test: Fungicidal activity against Magnaporthe grisea at 50 ug/ml by growth inhibition method; design: scale not given: the % may be the effect or the level left
[21] = tested on: Fusarium oxysporum; test: Fungicidal activity against Fusarium oxysporum at 50 ug/ml by growth inhibition method; design: scale not given: the % may be the effect or the level left

Compound | Activity [1] [%] | Activity [4] [%] | Activity [5] [%] | Activity [6] [%] | inhibition at 500 µg/mL [9] [%] | Activity [10] [%] | Activity [12] [%] | Activity [13] [%] | Activity [14] [%] | inhibition at 100 µg/mL [19] [%] | Activity [20] [%] | Activity [21] [%] | further results
Cc1ccc(N(C(=O)c2snnc2C)C(C(=O)NC2CCCCC2)c2ccc(O)cc2)cc1F (centres undefined) | 0 | 17 | 36 | 40 | 70 | 0 | 14 | 5 | 0 | 20 | 14 |  | Activity [2]: 55%; Activity [3]: 44%; Activity [7]: 65%; Activity [8]: 68%; Activity [11]: 65%; Activity [15]: 34%; Activity [16]: 40%; Activity [17]: 24%; Activity [18]: 43%
Cc1ccc(N(C(=O)c2snnc2C)C(C(=O)NC2CCCCC2)c2ccc(O)cc2)cc1Cl (centres undefined) | 31 | 33 | 53 | 46 | 17 | 32 | 37 | 8 | 50 | 14 | 41 | 38 | 
Cc1ccc(N(C(=O)c2snnc2C)C(C(=O)NC2CCCCC2)c2ccccc2)cc1Cl (centres undefined) | 22 | 36 | 61 | 63 | 24 | 32 | 17 | 9 | 32 | 19 | 40 | 25 | 
Cc1ccc(N(C(=O)c2snnc2C)C(C(=O)NC2CCCCC2)c2ccc([N+](=O)[O-])cc2)cc1Cl (centres undefined) | 38 | 11 | 16 | 29 | 32 | 12 | 25 | 24 | 35 | 26 | 18 | 22 | 
Cc1ccc(N(C(=O)c2snnc2C)C(C(=O)NC2CCCCC2)c2cccc(Cl)c2)cc1Cl (centres undefined) | 26 | 18 | 39 | 65 | 29 | 21 | 12 | 9 | 21 | 21 | 20 | 11 | 
Cc1ccc(N(C(=O)c2snnc2C)C(C(=O)NC2CCCCC2)c2cccc(F)c2)cc1Cl (centres undefined) | 22 | 27 | 39 | 69 | 18 | 21 | 17 | 9 | 21 | 9 | 15 | 21 | 
Cc1ccc(N(C(=O)c2snnc2C)C(C(=O)NC2CCCCC2)c2cccc(C(F)(F)F)c2)cc1Cl (centres undefined) | 31 | 22 | 21 | 20 | 19 | 20 | 30 | 20 | 32 | 22 | 24 | 31 | 
Cc1ccc(C(C(=O)NC2CCCCC2)N(C(=O)c2snnc2C)c2ccc(C)c(Cl)c2)cc1 (centres undefined) | 26 | 27 | 35 | 69 | 40 | 26 | 24 | 18 | 42 | 25 | 50 | 18 | 
